Measurements reported in patent publication US12661308B2, “Antimicrobial AZO compounds and uses thereof” (The Regents Of The University Of Colorado, A Body Corporate, priority 2019, dated 2026).
“Also recorded” adds a separate entry of the source.

Columns and labels:
S. mutans [1] = assay: Detachment study of S. mutans from OH-AAZO coated substrate with and without light (Example 2); assay type: cell-based, Streptococcus mutans; details: 50 mg/mL coating
Protocol: In this Example, detachment of S. mutans from a polymeric substrate coated with a 50 mg/mL OH-AAZO solution was evaluated. Four conditions were evaluated. The first is where the polymeric substrate is coated with OH-AAZO and exposed to light to produce a photofluidization effect due to the rapid trans cis isomerization (Azo, light or AL). The second is where the polymeric substrate is coated with OH-AAZO and not exposed to light (Azo, no light or ANL). The third is where the polymeric substrate is not coated with OH-AAZO and is exposed to light (no Azo, light or NAL). The fourth is where the polymeric substrate is not coated with OH-AAZO and is not exposed to light (no Azo, no light or NANL).

S. mutans biofilm [2] = assay: Live-dead stain microscopy of S. mutans biofilms (Example 4); assay type: cell-based, Streptococcus mutans
Protocol: Microscope images were obtained using a Zeiss digital microscope at 6300× magnification using the FITC and CY3 channels. Following biofilm growth, the substrates were placed in a solution of live-dead stains (Invitrogen BacLight™) containing 1.5 μL Component A (SYTO® 9, green fluorescent nucleic acid stain) and 1.5 μL Component B (propidium iodide, red fluorescent nucleic acid stain) in 200 μL of sterile water. The substrates were soaked for 3 min, then gently washed in sterile water for 10 s, dried, and fixed to a glass slide prior to imaging.

[3] = test system: S. oralis (ATCC 9811) biofilm; assay: Biofilm growth study, S. oralis; assay type: cell-based, Streptococcus oralis; details: 50 mg/mL coated substrate, 24 h time-period
Protocol: S. oralis and A. actinomycetemcomitans were streaked on a BHI agar plate and incubated at 37° C. and 5% CO2 for 48 h. An isolated colony was inoculated in 5 mL BHI media for 12 h under the same incubation conditions, followed by a 1:10 dilution in BHI media in a 96-well plate containing the substrates of interest. […]
(§1) Following biofilm growth in the 96-well plate, the substrates were aseptically removed from the 96-well plate and placed in a vial containing 5 mL of 1× PBS solution. The vials were sonicated in a water bath for 10 min at 45° C., and the wells that previously contained the substrates were briefly sonicated using a probe sonicator (3 W RMS output) for 10 s per well. 200 μL aliquots of the sonicated PBS solution were placed in a 96-well plate and diluted 1:10 in each subsequent row. 20 μL aliquots of the sonicated media wells were placed in a 96-well plate containing 180 μL of PBS solution and diluted 1:10 in each subsequent row. Each column was then plated at a volume of 10 μL on a BHI agar plate in triplicate. The plates were then incubated at 37° C. and 5% CO2 for 48 h. The CFUs on each plate were counted in order to quantify the amount of biofilm remaining on the surface of the substrate and the bacteria remaining in the media after the removal of the substrate using the following equations: […]

[4] = test system: Methicillin-susceptible S. aureus biofilm; assay: Biofilm growth study, S. aureus; assay type: cell-based, Staphylococcus aureus; details: 50 mg/mL coated substrate, 24 h time-period
Protocol: Methicillin-susceptible S. aureus biofilms were grown from a 20 h BHI liquid culture inoculated with an S. aureus colony. The liquid culture was diluted 10^3 to a stock solution in BHI, then diluted 1:10 in BHI media containing 0.4 wt. % glucose in a 96-well plate. The plate was incubated in the dark at 37 ° C. for 24 h.
as §1

[5] = test system: S. pyogenes (Group A strep, GAS); assay: Growth study, S. pyogenes (Group A strep); assay type: cell-based, Streptococcus pyogenes; details: 50 mg/ML coated substrates, BHI media, 24 h time-period
Protocol: (§2) A single bacterial colony was inoculated in 4 mL BHI media. The colony was grown to mid-log phase (to approximately OD600=0.4), statically at 37° C., which for was approximately 4 hours for the S. agalactiae GBS, approximately 11 hours for the S. pyogenes GAS, and approximately 6 hours for the S. pneumaoniae. They were diluted 1:5 in 80% glycerol (in water) solution (4 parts culture, 1 part glycerol, for a final glycerol concentration of 16%). In a 96-well plate, each was diluted to 1:100 resulting in a final concentration of 1×10^6 CFU/mL and grown at 37° C. with 5% CO2.

[6] = test system: S. pneumoniae (Pneumonococcus, Pn); assay: Growth study, S. pneumoniae; assay type: cell-based, Streptococcus pneumoniae; details: 50 mg/ML coated substrates, BHI media, 24 h time-period
Protocol: as §2

S. mutans [7] = assay: DIBAC4(3) membrane potential assay; assay type: cell-based, Streptococcus mutans
Protocol: Membrane potential assays were performed as described by Wu et al. with minor modifications. Wu et al., Antibacterial activity and membrane-disruptive mechanism of 3-p-trans-coumaroyl-2-hydroxyquinic acid, a novel phenolic compound from pine needles of Cedrus deodara, against Staphylococcus aureus, Molecules (2016), 21(8):1-12. S. mutans bacteria grown for 24 h in BHI broth were inoculated in a 96-well plate as described above. The plate was incubated for 8 h at 37° C. and 5% CO2. 2 μL of 0.1 mg/mL DIBAC4 (3) solution in DMSO was added to each well. The plate was then incubated in the dark overnight. The fluorescence reading was taken in a plate reader at λexcitation=492 nm and λemission=515 nm. Fluorescence values in bacteria-containing wells were normalized against fluorescence values containing the same substrate but no bacteria.

S. mutans biofilm [8] = assay: S. mutans biofilm growth on coated pit and fissure dental sealants; assay type: cell-based, Streptococcus mutans; details: coating on pit and fissure sealants
Description: In some implementations, the azobenzene polymers can be used as an antimicrobial coating on pit and fissure dental sealants. […] Azobenzene coatings can be incorporated into pit and fissure sealants as an anti-bacterial coating to prevent tooth decay.

C=CC(=O)Oc1ccccc1/N=N/c1ccccc1O [OH-AAZO, phenolic acrylated azobenzene]
S. mutans growth (S. mutans [1]; exposed to light (AL), over 48 hr): no growth
S. mutans growth (S. mutans [1]; no light (ANL), first 33 hr): minimal growth
S. mutans growth (S. mutans [1]; no light (ANL), t=48 hr): some minimal biofilm growth
live and dead bacteria on substrate, live-dead stain (S. mutans biofilm [2]; 1.5% OH-AAZO bulk substrate, 24 h): high amounts of dead bacteria (lighter) and little to no live bacteria; also recorded: did not grow
live and dead bacteria on substrate, live-dead stain (S. mutans biofilm [2]; 2% OH-AAZO bulk substrate, 24 h): high amounts of dead bacteria (lighter) and little to no live bacteria; also recorded: did not grow
live and dead bacteria on substrate, live-dead stain (S. mutans biofilm [2]; coated substrate, 24 h biofilm growth, compared to uncoated control): high amounts of dead bacteria (lighter) and little to no live bacteria
S. oralis growth on coated substrate and in media [3]: did not grow on the coated substrate nor in the media; also recorded: antibacterial effect was only observed
antibacterial effect on S. aureus biofilm (CFUs) [4]: no discernable antibacterial effect or reduction in CFUs
S. pyogenes growth on coated substrate and in media [5]: did not grow on the coated substrate nor in the media
S. pneumoniae growth on coated substrate and in media [6]: did not grow on the coated substrate nor in the media
DIBAC4(3) fluorescence of S. mutans (S. mutans [7]; 5 mg/mL coated substrate, relative to uncoated control): slight reduction
DIBAC4(3) fluorescence of S. mutans (S. mutans [7]; 25 mg/mL coated substrate): drop in fluorescence to zero
DIBAC4(3) fluorescence of S. mutans (S. mutans [7]; 50 mg/mL coated substrate): drop in fluorescence to zero; also recorded: dropped to zero
S. mutans biofilm growth (S. mutans biofilm [8]): absent
